Assay results from ChEMBL document CHEMBL1157738, “Simocyclinone D8 turns on against Gram-negative bacteria in a clinical setting” (2010).
In brackets after ≈: the same amount, converted by molar mass.

Legend:
[1] = tested on: Escherichia coli; test: Antibacterial activity against Escherichia coli isolate 32 assessed as residual bacterial survival at 50 mg/L after 24 hrs by twofold serial dilution method; format: functional; details: isolate 32, 24 h
[2] = tested on: Escherichia coli; test: Antibacterial activity against Escherichia coli isolate 47 expressing qnr B19 gene assessed as residual bacterial survival at 50 mg/L after 24 hrs by twofold serial dilution method; format: functional; details: isolate 47, 24 h
[3] = tested on: Escherichia coli; test: Antibacterial activity against Escherichia coli isolate 13 after 24 hrs by twofold serial dilution method; format: functional
[4] = tested on: Escherichia coli; test: Antibacterial activity against Escherichia coli isolate 41 assessed as residual bacterial survival at 50 mg/L after 24 hrs by twofold serial dilution method; format: functional; details: isolate 41, 24 h
[5] = tested on: Escherichia coli; test: Antibacterial activity against Escherichia coli Top10 after 24 hrs by twofold serial dilution method; format: functional
[6] = tested on: Klebsiella pneumoniae; test: Antibacterial activity against Klebsiella pneumoniae isolate 16 expressing qnr B19 gene, GyrA D87G mutant assessed as residual bacterial survival at 50 mg/L after 24 hrs by twofold serial dilution method; format: functional; details: isolate 16, 24 h
[7] = tested on: Escherichia coli; test: Antibacterial activity against Escherichia coli isolate 115 expressing GyrA S83L mutant assessed as residual bacterial survival at 50 mg/L after 24 hrs by twofold serial dilution method; format: functional; details: isolate 115, 24 h
[8] = tested on: Escherichia coli; test: Antibacterial activity against Escherichia coli isolate 191 expressing qnr S1 gene assessed as residual bacterial survival at 50 mg/L after 24 hrs by twofold serial dilution method; format: functional; details: isolate 191, 24 h
[9] = tested on: Escherichia coli; test: Antibacterial activity against Escherichia coli isolate 21 after 24 hrs by twofold serial dilution method; format: functional
[10] = tested on: Escherichia coli; test: Antibacterial activity against Escherichia coli JM109 after 24 hrs by twofold serial dilution method; format: functional
[11] = tested on: Staphylococcus aureus; test: Antibacterial activity against Staphylococcus aureus after 24 hrs by twofold serial dilution method; format: functional
[12] = tested on: Klebsiella pneumoniae; test: Antibacterial activity against Klebsiella pneumoniae isolate 91 assessed as residual bacterial survival at 50 mg/L after 24 hrs by twofold serial dilution method; format: functional; details: isolate 91, 24 h
[13] = tested on: Escherichia coli; test: Antibacterial activity against Escherichia coli isolate 9 expressing qnr B19 gene, GyrA D87G mutant assessed as residual bacterial survival at 50 mg/L after 24 hrs by twofold serial dilution method; format: functional; details: isolate 9, 24 h
[14] = tested on: Klebsiella pneumoniae; test: Antibacterial activity against Klebsiella pneumoniae isolate 328 expressing qnr B19 gene, GyrA D87G mutant assessed as residual bacterial survival at 50 mg/L after 24 hrs by twofold serial dilution method; format: functional; details: isolate 328, 24 h
[15] = tested on: Escherichia coli; test: Antibacterial activity against Escherichia coli isolate 50 assessed as drug uptake; format: functional, organism-based
[16] = tested on: Escherichia coli; test: Antibacterial activity against Escherichia coli isolate 24 assessed as drug uptake relative to total amount drug treated; format: functional, organism-based
[17] = tested on: Escherichia coli; test: Antibacterial activity against Escherichia coli XL-1Blue after 24 hrs by twofold serial dilution method; format: functional
[18] = tested on: Escherichia coli; test: Antibacterial activity against Escherichia coli isolate 24 after 24 hrs by twofold serial dilution method; format: functional
[19] = tested on: Klebsiella pneumoniae; test: Antibacterial activity against Klebsiella pneumoniae isolate 97 expressing qnr B19 gene after 24 hrs by twofold serial dilution method; format: functional
[20] = tested on: Escherichia coli; test: Antibacterial activity against Escherichia coli isolate 24 assessed as drug uptake; format: functional, organism-based
[21] = tested on: Klebsiella pneumoniae; test: Antibacterial activity against Klebsiella pneumoniae isolate 173 assessed as residual bacterial survival at 50 mg/L after 24 hrs by twofold serial dilution method; format: functional; details: isolate 173, 24 h
[22] = tested on: Klebsiella pneumoniae; test: Antibacterial activity against Klebsiella pneumoniae isolate 134 after 24 hrs by twofold serial dilution method; format: functional
[23] = tested on: Klebsiella pneumoniae; test: Antibacterial activity against Klebsiella pneumoniae isolate 92 assessed as residual bacterial survival at 50 mg/L after 24 hrs by twofold serial dilution method; format: functional; details: isolate 92, 24 h
[24] = tested on: Escherichia coli; test: Antibacterial activity against Escherichia coli isolate 95 expressing GyrA S83L mutant assessed as residual bacterial survival at 50 mg/L after 24 hrs by twofold serial dilution method; format: functional; details: isolate 95, 24 h
[25] = tested on: Escherichia coli; test: Antibacterial activity against Escherichia coli isolate 13 assessed as residual bacterial survival at 50 mg/L after 24 hrs by twofold serial dilution method; format: functional; details: isolate 13, 24 h
[26] = tested on: Escherichia coli; test: Antibacterial activity against Escherichia coli isolate 32 after 24 hrs by twofold serial dilution method; format: functional
[27] = tested on: Escherichia coli; test: Antibacterial activity against Escherichia coli isolate 7 assessed as residual bacterial survival at 50 mg/L after 24 hrs by twofold serial dilution method; format: functional; details: isolate 7, 24 h
[28] = tested on: Klebsiella pneumoniae; test: Antibacterial activity against Klebsiella pneumoniae isolate 173 after 24 hrs by twofold serial dilution method; format: functional
[29] = tested on: Escherichia coli; test: Antibacterial activity against Escherichia coli Top10 assessed as residual bacterial survival at 50 mg/L after 24 hrs by twofold serial dilution method; format: functional; details: Top10, 24 h
[30] = tested on: Klebsiella pneumoniae; test: Antibacterial activity against Klebsiella pneumoniae isolate 204 expressing qnr B19 gene after 24 hrs by twofold serial dilution method; format: functional
[31] = tested on: Escherichia coli; test: Antibacterial activity against Escherichia coli JM109 assessed as residual bacterial survival at 50 mg/L after 24 hrs by twofold serial dilution method; format: functional; details: JM109, JM 109, 24 h

Compound: CC(=O)O[C@@H]1[C@@H](C)O[C@@H](c2ccc3c(c2O)[C@@H](O)[C@]24O[C@@]2(C3=O)[C@@]2(O)C(=O)C=C(C)C[C@@]2(O)C[C@@H]4O)C[C@H]1OC(=O)/C=C/C=C/C=C/C=C/C(=O)Nc1c(O)c2ccc(O)c(Cl)c2oc1=O [SIMOCYCLINONE D8]
- survival at 50 µg/mL [1]: > 90%
- survival at 50 µg/mL [2]: 44%
- MIC50 [3]: > 100 µg/mL
- survival at 50 µg/mL [4]: 9%
- MIC50 [5]: > 100 µg/mL
- survival at 50 µg/mL [6]: > 90%
- survival at 50 µg/mL [7]: > 90%
- survival at 50 µg/mL [8]: 56%
- MIC50 [9]: > 100 µg/mL
- MIC50 [10]: > 100 µg/mL
- MIC50 [11]: 50 µg/mL (≈ 53.6 µM)
- survival at 50 µg/mL [12]: > 90%
- survival at 50 µg/mL [13]: > 90%
- survival at 50 µg/mL [14]: > 90%
- Drug uptake [15]: 180 pmol
- Drug uptake [16]: 7.53%
- MIC50 [17]: > 100 µg/mL
- MIC50 [18]: 3.12 µg/mL (≈ 3.35 µM)
- MIC50 [19]: 50 µg/mL (≈ 53.6 µM)
- Drug uptake [20]: 260 pmol
- survival at 50 µg/mL [21]: 83%
- MIC50 [22]: 25 µg/mL (≈ 26.8 µM)
- survival at 50 µg/mL [23]: 77%
- survival at 50 µg/mL [24]: > 90%
- survival at 50 µg/mL [25]: > 90%
- MIC50 [26]: > 100 µg/mL
- survival at 50 µg/mL [27]: > 90%
- MIC50 [28]: 100 µg/mL (≈ 107 µM)
- survival at 50 µg/mL [29]: > 90%
- MIC50 [30]: >100%
- survival at 50 µg/mL [31]: > 90%
